The text below walks through data of ChEMBL document CHEMBL5032529, “Synthesis and evaluation of tetrahydroisoquinoline derivatives against Trypanosoma brucei rhodesiense” (Eur J Med Chem, 2021).

Data set [1] can be described thus: Selectivity index, ratio of IC50 for cytotoxicity against African green monkey Vero cells to IC50 for antitrypanosomal activity against Trypanosoma brucei rhodesiense STI B900. It is filed as toxicity, cell-based. As to conditions: read-out: Ratio IC50.
Data set [2] concerns Trypanosoma brucei rhodesiense. Nature of the data set: Antitrypanosomal activity against Trypanosoma brucei rhodesiense STIB900 assessed as parasite growth inhibition measured after 72 hrs by alamar blue dye based spectrofluorimetric analysis. It is filed as functional, organism-based. The note with it: STIB900, 72 h. (In general: Alamar Blue is a resazurin reagent that responds to reducing activity.)

The subject of the next data set is Vero. Briefly: Cytotoxicity against African green monkey Vero cells assessed as reduction in cell viability measured after 72 hrs by SRB assay. The class given is cell-based. As to conditions: Chlorocebus sabaeus. (The SRB assay estimates cell density from bound dye.)

The structures appear in SMILES notation.

As a reminder, the IC50 is the concentration at which inhibition is half-maximal. As for `CN1Cc2ccc(OCCOc3ccccc3)cc2[C@@H](O)C1`, in data set [1], the selectivity ratio is greater than 5.6. Besides, the results for the IC50 (in data set [2]; in the data set on Vero) were 17.9 µM and greater than 100 µM, respectively.
In the case of `CN1Cc2ccc(OCc3ccc(-c4ccccc4)cc3)cc2[C@@H](OCc2ccc(-c3ccccc3)cc2)C1`, the selectivity ratio in data set [1] is greater than 3.6. For the same compound, the IC50 was 2.8 µM in data set [2] and greater than 10 µM in the data set on Vero.
Taken in the same sequence, the figures for `CN1CCc2cc(OCCCN3CCOCC3)ccc2C1` were greater than 1.9, 25.9 µM and greater than 50 µM.
Taken in the same sequence, the figures for `CN1Cc2ccc(OCC3CCCCC3)cc2[C@@H](O)C1` were 23.4, 2.8 µM and 65.6 µM.
Taken in the same sequence, the figures for `CN1Cc2ccc(OCc3ccc([N+](=O)[O-])cc3)cc2[C@@H](O)C1` were greater than 3, 16.9 µM and greater than 50 µM.
Regarding `CN1CCc2cc(-c3ccccc3)ccc2C1`, the selectivity ratio in data set [1] was greater than 16.7. Moreover, the IC50 is 3 µM in data set [2] and greater than 50 µM with Vero.
Taken in the same sequence, the figures for `Cc1ccccc1COc1ccc2c(c1)[C@@H](O)CN(C)C2` were greater than 4.8, 20.7 µM and greater than 100 µM.
Taken in the same sequence, the figures for `CN1Cc2ccc(OCCCN3CCOCC3)cc2[C@@H](O)C1` were greater than 1.8, 27.6 µM and greater than 50 µM.
Consider `CN1Cc2ccc(OCc3ccccc3)cc2[C@@H](O)C1`, for which, in data set [1], the selectivity ratio is greater than 3.9. Moreover, the IC50 in data set [2] was 25.6 µM; in the data set with Vero, greater than 100 µM.
Turning to `CN1Cc2ccc(OCc3cccc(Br)c3)cc2[C@@H](O)C1`, the selectivity ratio in data set [1] is 27.4. The IC50 in data set [2] was 2.2 µM; in the data set on Vero, 60.3 µM.
Turning to `CN1Cc2ccc(OCCC3CCCCC3)cc2[C@@H](O)C1`, the selectivity ratio in data set [1] is greater than 20. The results for the IC50 (in data set [2]; in the data set with Vero) were 2.5 µM and greater than 50 µM, respectively.
Consider `COc1cccc(-c2ccc(COc3ccc4c(c3)[C@@H](O)CN(C)C4)cc2)c1`, for which, in data set [1], the selectivity ratio worked out at 3.9. For the same compound, the IC50 worked out at 2.8 µM in data set [2] and 10.8 µM in the data set with Vero.
Take `OC1CNCc2c(OCc3ccccc3)cccc21` (stereo unspecified): the selectivity ratio in data set [1] is greater than 1.9. For the same compound, the IC50 was 26.2 µM in data set [2] and greater than 50 µM in the data set with Vero.
For `Oc1ccc2c(c1)C(O)CN(Cc1ccc(-c3ccccc3)cc1)C2` (stereo unspecified), the selectivity ratio in data set [1] is greater than 9.3. Further, the IC50 in data set [2] was 5.4 µM; with Vero, greater than 50 µM.
In the case of `Cc1ccccc1COc1ccc2c(c1)C(O)CNC2` (stereo unspecified), the selectivity ratio in data set [1] is greater than 7.7. For the same compound, the IC50 was 3.26 µM in data set [2] and greater than 25 µM in the data set with Vero.
As for `CN1Cc2c(O)cccc2[C@@H](O)C1`, the IC50 (in data set [2]; with Vero) was greater than 100 µM in each case.
With `CN1Cc2ccc(OCc3ccc(Oc4ccccc4)cc3)cc2[C@@H](O)C1`, in data set [1], the selectivity ratio is 1.3. Also, the results for the IC50 (in data set [2]; with Vero) were 2.7 µM and 3.4 µM, respectively.
With `Oc1cccc2c1CNCC2O` (stereo unspecified), the IC50 (in data set [2]; in the data set with Vero) was greater than 100 µM each time.
With `CN1CCc2cc(OCc3ccccc3)ccc2C1`, the selectivity ratio in data set [1] is greater than 22.7. For the same compound, the results for the IC50 (in data set [2]; with Vero) were 4.4 µM and greater than 100 µM, respectively.
Taken in the same sequence, the figures for `CN1Cc2c(OCc3ccccc3)cccc2[C@@H](O)C1` were greater than 1.4, 69.8 µM and greater than 100 µM.
Taken in the same sequence, the figures for `CN1Cc2ccc(O[Si](c3ccccc3)(c3ccccc3)C(C)(C)C)cc2[C@@H](O)C1` were 6.8, 2.8 µM and 19.1 µM.
For the compound `CN1CCc2cc(O)ccc2C1`, the concentration for half-maximal inhibition (IC50) (in data set [2]; in the data set on Vero) was greater than 100 µM in each case.
Turning to `Oc1ccc2c(c1)C(O)CN(Cc1ccccc1)C2` (stereo unspecified), the selectivity ratio in data set [1] is greater than 1.4. Moreover, the results for the IC50 (in data set [2]; with Vero) were 70.5 µM and greater than 100 µM, respectively.
On to `CN1Cc2ccc(OCc3ccc(-c4cccc(Cl)c4)cc3)cc2[C@@H](O)C1`, for which the selectivity ratio in data set [1] was found to be 9.1. For the same compound, the values for the IC50 (in data set [2]; in the data set with Vero) were 2.8 µM and 25.5 µM, respectively.
Regarding `CCCCCCCCCCCCOc1ccc2c(c1)[C@@H](O)CN(C)C2`, the selectivity ratio in data set [1] was 7.6. Moreover, the IC50 was 2.4 µM in data set [2] and 18.3 µM with Vero.
Taken in the same sequence, the figures for `Cc1cccc(COc2ccc3c(c2)[C@@H](O)CN(C)C3)c1` were greater than 2.5, 20.3 µM and greater than 50 µM.
Taken in the same sequence, the figures for `CN1Cc2ccc(OCc3ccccc3)cc2[C@@H](OCc2ccccc2)C1` were 8.4, 2.8 µM and 23.5 µM.
Regarding `OC1CNCc2c(OCCC3CCCCC3)cccc21` (stereo unspecified), in data set [1], the selectivity ratio is 12.6. Besides, the half-maximal inhibitory concentration (IC50) in data set [2] was found to be 2.01 µM; with Vero, 25.3 µM.
For the compound `CCN1Cc2ccc(O)cc2C(O)C1` (stereo unspecified), the IC50 (in data set [2]; in the data set on Vero) was greater than 100 µM in each case.
For the compound `CN1Cc2ccc(O)cc2[C@@H](OCc2ccccc2)C1`, the IC50 (in data set [2]; with Vero) was greater than 50 µM throughout.
`CN1Cc2ccc(OCCC3CCCCC3)cc2[C@@H](OCCC2CCCCC2)C1`: the selectivity ratio in data set [1] stood at 10.3. Besides, the IC50 in data set [2] is 2.3 µM; with Vero it was 23.6 µM.
As for `OC1CNCc2ccc(OCc3cccc(Br)c3)cc21` (stereo unspecified), the selectivity ratio in data set [1] was 16.3. The IC50 came out at 3.33 µM in data set [2] and 54.3 µM in the data set on Vero.
Turning to `COc1ccc2c(c1)[C@@H](O)CN(C)C2`, the IC50 (in data set [2]; in the data set with Vero) was greater than 100 µM throughout.
Consider `CCCN1Cc2ccc(O)cc2C(O)C1` (stereo unspecified), for which the IC50 (in data set [2]; with Vero) was greater than 100 µM throughout.
For the compound `CN1CCc2cc(OCc3ccc(-c4ccccc4)cc3)ccc2C1`, the selectivity ratio in data set [1] came to 7.2. For the same compound, the IC50 worked out at 2.3 µM in data set [2] and 16.5 µM in the data set on Vero.
For `Cc1c2ccncc2c(C)c2c1[nH]c1ccccc12` [ELLIPTECINE], the IC50 in the data set with Vero was determined as 2.4 µM.
Consider `CN1Cc2ccc(OCc3ccc(-c4ccccc4)cc3)cc2[C@@H](O)C1`, for which, in data set [1], the selectivity ratio is 7.9. Further, the IC50 in data set [2] stood at 2.9 µM; with Vero, 23 µM.
`Cc1ccccc1COc1cccc2c1CNCC2O` (stereo unspecified): the selectivity ratio in data set [1] was greater than 6.1. Besides, the concentration for half-maximal inhibition (IC50) in data set [2] was 16.5 µM; in the data set with Vero, greater than 100 µM.
With `OC1CNCc2c(OCc3ccc(Br)cc3)cccc21` (stereo unspecified), in data set [1], the selectivity ratio is greater than 19.7. For the same compound, the figures for the IC50 (in data set [2]; with Vero) were 2.54 µM and greater than 50 µM, respectively.
Turning to `CN1Cc2ccc(OCc3ccc(-c4ccc5ccccc5c4)cc3)cc2[C@@H](O)C1`, the selectivity ratio in data set [1] was found to be 1.3. In addition, the IC50 is 0.24 µM in data set [2] and 0.31 µM in the data set on Vero.
Regarding `OC1CN(Cc2ccccc2)Cc2ccc(OCc3ccc(-c4ccccc4)cc3)cc21` (stereo unspecified), the selectivity ratio in data set [1] is 5.5. Besides, the IC50 was found to be 2.7 µM in data set [2] and 14.8 µM in the data set on Vero.
Regarding `N=C(N)c1ccc(OCCCCCOc2ccc(C(=N)N)cc2)cc1` [PENTAMIDINE], in data set [2], the 50% inhibitory concentration (IC50) is 0.00707 µM.
Consider `CN1Cc2ccc(OCCCn3ccnc3[N+](=O)[O-])cc2[C@@H](O)C1`, for which the selectivity ratio in data set [1] was greater than 2.3. In addition, the IC50 in data set [2] is 21.7 µM; with Vero, greater than 50 µM.
`CN1Cc2ccc(OCCCc3ccccc3)cc2[C@@H](O)C1`: the selectivity ratio in data set [1] is greater than 2.7. For the same compound, the values for the IC50 (in data set [2]; with Vero) were 18.7 µM and greater than 50 µM, respectively.
`CN1CCc2cc(-c3ccc4ccccc4c3)ccc2C1`: in data set [1], the selectivity ratio was found to be 8.9. Moreover, the half-maximal inhibitory concentration (IC50) in data set [2] was determined as 2.7 µM; with Vero it was 24.1 µM.
Taken in the same sequence, the figures for `CN1Cc2ccc(OCc3ccc(Br)cc3)cc2[C@@H](O)C1` were 14.8, 2.5 µM and 37 µM.
For `CN1Cc2ccc(OC(c3ccccc3)(c3ccccc3)c3ccccc3)cc2[C@@H](O)C1`, the selectivity ratio in data set [1] was determined as 4.2. The figures for the 50% inhibitory concentration (IC50) (in data set [2]; with Vero) were 20.8 µM and 87.9 µM, respectively.
Taken in the same sequence, the figures for `CN1Cc2ccc(O)cc2[C@@H](OCCC2CCCCC2)C1` were greater than 2.6, 19.1 µM and greater than 50 µM.
`OC1CCCc2ccc(OCc3ccccc3)cc21` (stereo unspecified): in data set [1], the selectivity ratio turned out to be 0.6. For the same compound, the IC50 in data set [2] came to 65.9 µM; with Vero it was 39 µM.
For the compound `CN1Cc2ccc(OCCCN3CCNCC3)cc2[C@@H](O)C1`, the IC50 (in data set [2]; with Vero) was greater than 100 µM each time.
Consider `Oc1ccc2c(c1)C(O)CCC2` (stereo unspecified), for which the IC50 (in data set [2]; in the data set with Vero) was greater than 100 µM each time.
As for `CN1Cc2ccc(O)cc2[C@@H](OCc2ccc(-c3ccccc3)cc2)C1`, the selectivity ratio in data set [1] was greater than 7.8. In addition, the results for the IC50 (in data set [2]; in the data set with Vero) were 6.4 µM and greater than 50 µM, respectively.
Taken in the same sequence, the figures for `CN1Cc2ccc(OCc3ccc(-c4ccc(F)cc4)cc3)cc2[C@@H](O)C1` were 24.1, 1.4 µM and 33.8 µM.
Consider `CCCCCCCCCCCC1c2ccc(O)cc2[C@@H](O)CN1C` (stereo partly specified), for which the IC50 in data set [2] came to 0.39 µM.
As to `COCCOCOc1ccc2c(c1)[C@@H](O)CN(C)C2`, the IC50 (in data set [2]; in the data set with Vero) was greater than 50 µM throughout.
Regarding `CN1Cc2ccc(OCc3ccc(-c4ccccc4)cc3)cc2[C@H](OC(=O)c2ccccc2)C1`, in data set [1], the selectivity ratio amounted to 0.8. Also, the values for the IC50 (in data set [2]; with Vero) were 16.3 µM and 12.9 µM, respectively.
On to `CN1Cc2ccc(OCCCn3cnc([N+](=O)[O-])c3)cc2[C@@H](O)C1`, for which the IC50 (in data set [2]; with Vero) was greater than 50 µM in each case.
In the case of `OC1CCCc2ccc(OCc3ccc(-c4ccccc4)cc3)cc21` (stereo unspecified), the IC50 (in data set [2]; with Vero) was greater than 100 µM throughout.
Take `CN1Cc2ccc(OCC3CCNCC3)cc2[C@@H](O)C1`: the IC50 (in data set [2]; with Vero) was greater than 100 µM each time.
In the case of `CN1Cc2ccc(OCc3cccnc3)cc2[C@@H](O)C1`, the IC50 (in data set [2]; in the data set with Vero) was greater than 50 µM throughout.
As to `COc1cccc2c1CN(C)C[C@@H]2O`, the IC50 (in data set [2]; in the data set with Vero) was greater than 100 µM throughout.
As to `CN(C)CCOc1ccc2c(c1)[C@@H](O)CN(C)C2`, the IC50 (in data set [2]; with Vero) was greater than 50 µM throughout.
For the compound `Oc1ccc2c(c1)C(O)CNC2` (stereo unspecified), the 50% inhibitory concentration (IC50) (in data set [2]; with Vero) was greater than 100 µM in each case.
